# Laboratory results published in PMC2913955, “Whole-cell fungal transformation of precursors into dyes” (Microbial Cell Factories, 2010).
# Several values for one entry are separate records, joined by “and”; a condition that tells them apart may be missing. Equal entries are not always repeated. Marks after values point to notes of the source that are not given here.
# Columns and labels:
# [1] = Autoxidation of precursors on agar plates without actively growing mycelium (control samples); format: physicochemical; settings: 1 mM precursor in GPA agar; for autoxidation (in words): control samples without mycelium; for Precursors autoxidation: without mycelium; on Precursors autoxidation: key: - no; -/+ - slightly; + high; ++ very high
# Procedure: (§1) Agar-plate screening of several different precursors, benzoic and naphthalene derivatives was performed using fungal biomass as a biocatalyst (Table 1). Among these precursors were chemicals consisting of amino-, hydroxy-, nitro-, sulfonic- and carboxy- substituents. The ability of the fungi to grow in the presence of the precursors and to transform the latter into coloured products was monitored during 14 days of the experiment. […] In order to check the autoxidation ability of the precursors, the appearance of their coloured products without the presence of actively growing mycelium was monitored (control samples).
# (§2) The agar-plate screening test was performed using sterile 24-well tissue culture plates (16.2 mm in diameter). Each well contained 2.5 mL (± 0.2 mL) of sterile GPA medium with the addition of 2% agar and a precursor at a concentration of 1 mM. Each well was inoculated with one agar plug (3 mm in diameter) from the leading edge of colony, which had been maintained on MEA for at least 7 days at 25°C. The plates were incubated at 25°C, and the ability of the fungi to grow and transform the precursors into coloured products was monitored over the next 14 days.
# [2] = Cyclic voltammetry of precursors (oxidation and reduction potentials); format: physicochemical; settings: for Eo (oxidation potential) / Er (reduction potential): 1 mM precursor, 100 mM Na-tartrate buffer pH 4.5, graphite working electrode, Ag/AgCl reference; for oxidation and reduction peaks: pH 4.5, scan rates of 25 to 200 mV/s
# Procedure: To find correlations between the degree of precursor transformation by fungi and its oxidation potential, cyclic voltammetry (CV) was done. All the tested compounds were characterized using CV at a graphite working electrode at pH 4.5.
# Cyclic voltammetry of the tested precursors was performed using an MTM-Anko apparatus type M161 (Poland) equipped with a graphite working electrode, a platinum counter electrode, and an Ag/AgCl reference electrode. The precursors were dissolved using 100 mM Na-tartrate buffer, pH 4.5, to 1 mM final concentration. […] All potentials in this work were referred to the Ag/AgCl reference electrode.
# Caco-2 cells = test: Neutral Red uptake assay (NRU) cytotoxicity; format: cell-based, human; settings: Caco-2, precursor itself; for IC50: Homo sapiens
# Procedure: The cytotoxicity of precursors and products was tested using the Neutral Red uptake assay (NRU) with Caco-2 cells (Table 5). The EU classifies a chemical to be not environmentally toxic if the IC50 is above 0.1 mg/mL, which was the case for the selected products as measured with the NRU test. […] In the case of the dyes obtained after transformation of AHBS and ANS by FF25, AB123, or TV7, all the samples had IC50's of more than 1 mg/mL and were essentially non-toxic. In the case of control cultures, growing without the addition of precursors, only the sample of TV7 was slightly toxic (IC50 = 0.85 mg/mL) while other control cultures (AB123, CU139, and FF25) had IC50's higher than one (Table 5).
# The toxicity of precursors and products was evaluated using the Neutral Red uptake assay (NRU) with Caco-2 human intestinal cell-line as an in vitro test system. Samples of products were lyophilized and then dissolved in dimethyl sulfoxide (DMSO) to a stock solution concentration of 100 mg/mL. The cytotoxicity of dyes was expressed as the half-maximal inhibitory concentration (IC50 - mg/mL), where values higher than 1 represented low cytotoxicity, values within the range from 0.1 to 1 represented medium cytotoxicity, and values below 0.1 represented high cytotoxicity of samples [10]. Additionally, the cytotoxicity of the fungal liquid culture without precursors and products was checked as a control.
# Cerrena unicolor (CU139) = test: Agar-plate screening test, transformation of precursors into coloured products; format: cell-based; settings: strain CU139, 1 mM precursor
# Procedure: as §1
# (§3) The colour intensity of the products obtained during the biotransformation of the precursors by fungi was analyzed after 7 days of cultivation. This intensity was expressed by different numbers; the value 0 expressed a lack of colour and the values in the range from 1 to 4 expressed a rising intensity of colour.
# as §2
# [3] = tested on: Trametes versicolor (TV7); test: as above; format: cell-based; settings: strain TV7, 1 mM precursor
# Procedure: as §1, §3, §2
# [4] = tested on: Abortiporus biennis (AB123); test: as above; format: cell-based; settings: strain AB123, 1 mM precursor
# Procedure: as §1, §3, §2
# Fomes fomentarius (FF25) = test: as above; format: cell-based; settings: strain FF25, 1 mM precursor
# Procedure: as §1, §3, §2
SMILES,Eo (oxidation potential) ([2]; scan rate 50 mV/s) [mV],Er (reduction potential) ([2]; scan rate 50 mV/s),autoxidation (in words) [1],Precursors autoxidation [1],also measured
"Nc1cc(S(=O)(=O)O)cc([N+](=O)[O-])c1O [AHNBS, 3-amino-4-hydroxy-5-nitrobenzenesulfonic acid]",579,-92 mV,very rapid and very intensive autoxidation,+,
"Nc1ccc(S(=O)(=O)O)c(N)c1 [2,4DABS, 2,4-diaminobenzenesulfonic acid]",818,,,-,
"O=S(=O)([O-])c1ccc2cc(O)ccc2c1.[Na+] [HNSA, 6-hydroxy-2-naphthalenesulfonic acid sodium salt]",893,-144 mV,,-,
"Nc1cccc(S(=O)(=O)O)c1 [Precursor 3ABS, 3-aminobenzenesulfonic acid]",968,5.4^a mV,,-,
"Oc1ccccc1O [Cat, 1,2-dihydroxybenzene]",548,285 mV,,-,
"O=Cc1ccccc1S(=O)(=O)[O-].[Na+] [Precursor 2FBSA, 2-formylbenzenesulfonic acid sodium salt]",,,,-,oxidation and reduction peaks [2]: did not exhibit
"Nc1ncccc1O [Precursor 2A3HP, 2-amino-3-hydroxypyridine]",647,,very slight autoxidation,-/+,IC50 (Caco-2 cells): 55 ± 28 µg/mL
"O.O=C(O)c1cc(S(=O)(=O)O)ccc1O [Precursor 5SSA, 5-sulfosalicylic acid hydrate]",,,,-,oxidation and reduction peaks [2]: did not exhibit
"O.O.O.O.Oc1ccccc1-c1ccccc1.[Na] [Precursor 2PP, 2-phenylphenol sodium salt tetrahydrate]",790,,,-,growth of mycelium in the presence of precursor (Cerrena unicolor (CU139)): unable to grow; growth of mycelium in the presence of precursor [3]: unable to grow; growth of mycelium in the presence of precursor [4]: unable to grow; growth of mycelium in the presence of precursor (Fomes fomentarius (FF25)): unable to grow
"Nc1ccc(N)c(S(=O)(=O)O)c1 [2,5DABS, 2,5-diaminobenzenesulfonic acid]",433,-356 mV and -356^a mV,very slight autoxidation,-/+,IC50 (Caco-2 cells): > 1000 µg/mL
"O=S(=O)(O)c1cc(O)c(O)c(S(=O)(=O)O)c1 [dHBdSA, 4,5-dihydroxy-1,3-benzene-disulfonic acid]",,,,-,Eo (oxidation potential) ([2]; scan rate 25 mV/s): 914^b mV
"Oc1ccc2ccc(O)cc2c1 [DHN, 2,7-dihydroxynaphtalene]",672,,very slight autoxidation,-/+,IC50 Precursor (Caco-2 cells): 107 ± 3.6 µg/mL

# Further lines, with some results ahead:
Eo (oxidation potential) ([2]; scan rate 50 mV/s) [mV],Er (reduction potential) ([2]; scan rate 50 mV/s),SMILES,autoxidation (in words) [1],Precursors autoxidation [1],also measured
1013,-0.5 mV,"Nc1ccccc1S(=O)(=O)O [Precursor A2SA, aniline-2-sulfonic acid]",,-,
499,,"Nc1ccc2cc(S(=O)(=O)O)cc(O)c2c1 [Precursor 6AHNS, 6-amino-4-hydroxy-2-naphthalenesulfonic acid]",very slight autoxidation,-/+,
518,-103 mV,"Nc1cc(S(=O)(=O)O)ccc1O [AHBS, 3-amino-4-hydroxybenzenesulfonic acid]",,-,IC50 (Caco-2 cells): > 1000 µg/mL
680,,"Nc1cccc2c(S(=O)(=O)O)cccc12 [ANS, 5-amino-1-naphthalenesulfonic acid]",,-,IC50 (Caco-2 cells): > 1000 µg/mL
251,,"Nc1c(O)cc(S(=O)(=O)O)c2ccccc12 [Precursor 4AHNS, 4-amino-3-hydroxy-1-naphthalenesulfonic acid]",very rapid and very intensive autoxidation,++,
